In general, melting point refers to the temperature, or range, at which the solid turns liquid.

Compound `CC(C)c1ccccc1N1/C(=N\N=C/c2ccc(-c3ncn(-c4ccc(OC(F)(F)F)cc4)n3)cc2)SCC1(C)O` (stereo not given) came in with a melting point of 114 to 116 °C.

With `COc1ccc(N2CCN(c3c(C)c(C)c4c(c3C)C(O)(c3ccco3)C(C)(C)O4)CC2)cc1` (stereo not given), the melting point fell in the range of 111 to 112 °C.

Compound `c1ccc2scnc2c1` showed a melting point of 134 to 135 °C.

In the case of `N#CCSC(=O)c1ccco1`, the melting point lay in the range of 76 to 78 °C.

`CCCN(CCCCNc1ncc(CC2CCCCC2)c(=O)[nH]1)c1ccccn1` had a melting point of 62 to 64 °C.

`CCC1(c2ccc(Cl)cc2)OCc2c1cnc(CN(C)C)c2O` (stereo not given) registered a melting point of 151 °C.

Turning to `O=C1CC(=C[N+](=O)[O-])Nc2ccc(Cl)cc2N1c1ccccc1`, the melting point lay within 248 to 251 °C.

For the compound `CSc1nn2c(N3CCN(C)CC3)cc(CN3CCOCC3)nc2c1S(=O)(=O)c1ccccc1`, the melting point was 199 to 201 °C.

Compound `COc1c(-c2ccc3cc(NS(C)(=O)=O)ccc3c2)cc(N2CCNC2=O)cc1C(C)(C)C` returned a melting point of 284 to 286 °C.

Turning to `Cc1cc(F)cc2c(=O)c(C(=O)O)cn(CC(F)(F)F)c12`, the melting point was 198 to 201 °C.

The compound `O=C(O)c1c(Cl)cc(Cl)c(Cl)c1C(=O)O` registered a melting point of 150 to 153 °C.

Regarding `CCC(CC)(C(=O)OC1CC(C)(C)N(OCc2ccccc2)C(C)(C)C1)C(=O)OC1CC(C)(C)N(OCc2ccccc2)C(C)(C)C1`, the melting point was in the range of 122 to 123 °C.

`CC(C)=NNc1ccnc2c(NC(=O)c3c(Cl)cccc3Cl)cc(C)cc12` came in with a melting point of 242 to 245 °C.

`Oc1c(Cc2ccccc2)cc(Br)c2ccccc12` gave a melting point of 123 to 125 °C.

For the compound `O=C(C1CCN(c2ccncn2)CC1)N1CCN(Cc2ccccc2)CC1`, the melting point was 107 to 108 °C.

`O=C(CCCCc1ccccc1)Nc1ccc(C(=O)NO)cc1` yielded a melting point of 189 to 191 °C.

For the compound `CC(=O)OCC1OC(Oc2nc[nH]c2C(N)=O)C(OC(C)=O)C1OC(C)=O` (stereo not given), the melting point lay within 132 to 134 °C.

As to `O=C(Nc1cccc2c1C(=O)c1c-2n[nH]c1-c1ccc(C(=O)NC2CN3CCC2CC3)s1)NN1CCOCC1` (stereo not given), the melting point was 245 to 246 °C.

With `Cc1ccc(-c2[nH]c(C(F)(F)F)nc2-c2ccc(S(C)(=O)=O)cc2)cc1`, the melting point is 234 to 238 °C.

Regarding `CC(C)(C)OC(=O)[C@H]1C[C@H](C(=O)O)[C@@H](c2ccccc2)N1C(=O)CNC(=O)Nc1ccc(Cl)cc1` (racemic), the melting point came to 248 °C.

`CCOC(=O)C=Cc1cc(N2C(=O)C3C4CC4CN3C2=O)c(F)cc1Cl` (stereo not given) returned a melting point of 123 to 124 °C.

On to `Nc1nc(-c2ccco2)c(C(=O)C2CCOCC2)s1`, for which the melting point lay within 184 to 188 °C.

In turn, `CC(C)(C)OC(=O)N1CCC[C@H](O)[C@@H]1c1ccccc1` yielded a melting point of 66 to 67 °C.

Regarding `C[C@@H]1[C@H](c2ccccc2)OC(=O)N1C(=O)CCc1ccccc1`, the melting point lay within 99 to 100 °C.

Take `O=c1nc(N2CCCC(O)C2)sc2ncccc12` (stereo not given): the melting point fell in the range of 208 to 211 °C.

Turning to `CCOC(=O)N1CCC(c2noc(-c3cc(Cl)c(N)c4c3OCC4)n2)CC1`, the melting point amounted to 162 °C.

In turn, `Cc1ccc(NC2CCOC2=O)c(C(=O)O)c1` (stereo not given) displayed a melting point of 199 to 200 °C.

In turn, `CCc1c2s[nH]c(=O)c2c(=O)n2ccc(N3CCC(N(C)C)C3)cc12` (stereo not given) had a melting point of 217 to 219 °C.

With `CCCCCCCCCCCCCCCC(=O)CC(=O)OC`, the melting point was 40 to 41 °C.

On to `Cn1ccc(-c2nnc(Cc3ccc(F)cc3)o2)c(O)c1=O`, for which the melting point was 216 to 218 °C.

`Cc1c(C)c2c(c(C)c1NC(=O)CC(C)(C)C)C(c1ccc(Br)cc1)C(C)(C)O2` (stereo not given): the melting point was in the range of 201 to 202 °C.

Turning to `O=Cc1cc2c(cc1O)OCCO2`, the melting point lay in the range of 114 to 115 °C.

For the compound `Cc1c(N(C)C)ccc([N+](=O)[O-])c1CO`, the melting point was in the range of 42 to 43 °C.

Compound `COC(=O)N1C2CCC1CC(=O)C2` returned a melting point of 60 to 61 °C.

In turn, `COc1ccc2cc(C3=CCC4(CC3)CCN(C)CC4)ccc2c1` displayed a melting point of 147 to 150 °C.
